Experimental data published in BindingDB's records for doi:10.3109/14756366.2012.670807 (Atatürk University, 2013).

How the values were obtained:
[1] = biological target: Carbonic anhydrase 1 (Homo sapiens, UniProt P00915); assay: Esterase Assay; conditions: pH 7.4
Protocol: (§1) CA activity was assayed by following the change in absorbance at 348 nm of 4-nitrophenylacetate (NPA) to 4-nitrophenylate ion over a period of 3 min at 25°Cusing a spectrophotometer (CHEBIOS UV-VIS) according to the method described by Verpoorte et al. [Verpoorte et al., J. Biol. Chem., 242:4221-4229] The enzymatic reaction contained 1.4 mL 0.05 M Tris-SO4 buffer (pH 7.4), 1 mL 3 mM 4-NPA, 0.5 mL H2O and 0.1 mL enzyme solution (total volume, 3.0 mL). A reference measurement was obtained by preparing the mixture without the enzyme solution. All measurements were made in triplicate. The Ki values were determined from a series of experiments using three different bromophenols concentrations and 4-NPA as the substrate at five different concentrations to construct Lineweaver-Burk curves [Lineweaver et al., J. Am. Chem. Soc., 57:685-693].

[2] = biological target: Carbonic anhydrase 2 (Homo sapiens, UniProt P00918); assay: Esterase Assay; conditions: pH 7.4
Protocol: as §1

Carbonic anhydrase 1, sequence (P00915 whole entry): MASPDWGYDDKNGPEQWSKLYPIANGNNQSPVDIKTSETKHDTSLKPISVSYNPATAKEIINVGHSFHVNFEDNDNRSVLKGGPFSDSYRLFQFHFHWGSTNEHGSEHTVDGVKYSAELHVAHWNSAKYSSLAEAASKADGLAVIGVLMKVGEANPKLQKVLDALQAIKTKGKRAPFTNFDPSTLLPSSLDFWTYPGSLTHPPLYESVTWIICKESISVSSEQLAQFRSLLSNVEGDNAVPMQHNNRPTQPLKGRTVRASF

| Compound | IC50 [1] [µM] | Ki [1] [µM] | IC50 [2] [µM] | Ki [2] [µM] |
| --- | --- | --- | --- | --- |
| O=C(c1ccc(O)c(O)c1)c1ccc(O)c(O)c1O [Carbonic anhydrase isoenzymes inhibitor, 5] | 27.8 | 32.5 | 142 | 23 |
| O=C(c1ccc(O)c(O)c1)c1cc(Br)c(O)c(O)c1O [Carbonic anhydrase isoenzymes inhibitor, 13] | 6.92 | 6.77 | 18.5 | 3.25 |
| O=C(c1cc(O)c(O)cc1Br)c1cc(Br)c(O)c(O)c1O [Carbonic anhydrase isoenzymes inhibitor, 14] | 3.22 | 1.19 | 24.5 | 28.6 |
| Oc1ccc(Cc2ccc(O)c(O)c2O)cc1O [Carbonic anhydrase isoenzymes inhibitor, 15] | 54.3 | 8.36 | 79.4 | 42.5 |
| Oc1cc(Br)c(Cc2cc(Br)c(O)c(O)c2O)cc1O [Carbonic anhydrase isoenzymes inhibitor, 16] | 4.28 | 2.59 | 63.6 | – |
